Biological target: T1, human GluR1 flip (Homo sapiens, UniProt P42261)
T1 construct: expressed in transfected cells; host or cells: CHO-K1
Assay: AMPA receptor function-enhancing activity using calcium influx as index (CHO-K1/GluR1 flip/stargazin-expressing cells)
Type: cell-based
Conditions: 100% = 3 mM glutamic acid + 300 μM cyclothiazide, 0% = 3 mM glutamic acid alone; for activation at 30 µM: CHO-K1, test compound 30 μM with 3 mM glutamic acid, read-out: hGluR1 flip/30 μM (%); for hGluR1 flip/30 μM (%): test compound 30 μM with 3 mM glutamic acid
Text: Experimental Example 1 Measurement method of AMPA receptor function-enhancing activity of compound using calcium influx as index
(1) Construction of Expression Gene
Human GluR1 flip cDNA was amplified by PCR method using forward primer […] (SEQ ID NO: 1) and reverse primer […] (SEQ ID NO: 2) artificially synthesized using human brain-derived cDNA (BD Bioscience) as a template. The amplified product was digested with restriction enzymes EcoRI, NotI (TAKARA SHUZO CO. LTD.) and incorporated into the same site of pcDNA3.1(+) (Invitrogen) to construct pcDNA3.1(+)/human GluR1 flip gene. Human stargazin cDNA was amplified by PCR method using forward primer […] (SEQ ID NO: 3) and reverse primer […] (SEQ ID NO: 4) artificially synthesized using human hippocampus cDNA as a template. The amplified product was digested with restriction enzymes XhoI, BamHI (TAKARA SHUZO CO. LTD.) and incorporated into the same site of pcDNA3.1(−) (Invitrogen) to construct pcDNA3.1 Zeo(−)/human stargazing gene.
(2) Construction of GluR1 Flip/Stargazin Expressing Cell
CHO-K1 cells passaged in a culture medium (Ham's F12 medium (Invitrogen) added with 10% inactivated fetal bovine serum (Morgate) and penicillin, streptomycin (Invitrogen)) were detached using 0.05% trypsin and 0.53 mM EDTA (Invitrogen) diluted with D-PBS(−). The detached cells were suspended in a culture medium, and recovered by centrifugation at 1,000 rpm. The recovered cells were re-suspended in D-PBS(−) and added into 0.4 cm electroporation cuvette (BioRad). pcDNA3.1(+)/human GluR1 flip gene (5 μg) and pcDNA3.1 Zeo(−)/human stargazin gene (15 μg) were added, and introduced into CHO-K1 cells under the conditions of 950 μFd, […] and using Gene Pulser II (BioRad). The introduced cells were cultured overnight in a culture medium. The next day, using a selection medium (culture medium added with zeocin (Invitrogen) at 250 μg/mL), the cells were plated in a 96 well plate at 250 cells/well. The clones showing drug resistance were selected, and GluR1 flip/stargazin expression clones were selected by an assay method shown below using calcium influx as an index.
(3) Measurement Method of AMPA Receptor Function-Enhancing Activity of Compound, Using Calcium Influx as an Index
CHO-K1/GluR1 flip/stargazin-expressing cells were plated on a 384 well black bottom transparent plate, and cultured for 2 days in a CO2 incubator (SANYO ELECTRIC Co. Ltd.) at 37° C. The medium of the cell plate was removed. A calcium indicator (Calcium5 Assay Kit, Molecular Devices) was diluted with an assay buffer (HBSS (Thermo Fisher Scientific), 0.1% BSA (Merck Millipoer) and 10 mM HEPES (Thermo Fisher Scientific)), and 1.25 mM probenecid (Dojindo Laboratories) was added thereto. The mixture prepared above was added at 30 μL/well (100 μL/well in case of 96 wells) to the well, and the well was left standing in 37° C., CO2 incubator for 1 hr. The cell plate was set in CellLux (PerkinElmer), a mixture (15 μL) (50 μL/well in case of 96 wells) of […] glutamic acid (final concentration 3 mM) diluted with an assay buffer and a test compound (test compound concentration 30 μM) was added thereto, and variation in the amount of fluorescence was measured for 3 min. The variation of fluorescence level of a well added with final concentration 3 mM of glutamic acid and 300 μM cyclothiazide (TOCRIS) was defined as 100%, the variation of fluorescence level of a well added with final concentration 3 mM of glutamic acid alone was defined as 0%, and the activity of the compound was calculated by the following formula. activity (%)=(X−C)/(T−C)×100 • T: variation of fluorescence level of well added with final concentration 3 mM of glutamic acid and 300 μM cyclothiazide • C: variation of fluorescence level of well added with final concentration 3 mM of glutamic acid alone • X: variation of fluorescence level of well added with test compound

T1 sequence (P42261 19-906 isoform P42261-2 limits assumed): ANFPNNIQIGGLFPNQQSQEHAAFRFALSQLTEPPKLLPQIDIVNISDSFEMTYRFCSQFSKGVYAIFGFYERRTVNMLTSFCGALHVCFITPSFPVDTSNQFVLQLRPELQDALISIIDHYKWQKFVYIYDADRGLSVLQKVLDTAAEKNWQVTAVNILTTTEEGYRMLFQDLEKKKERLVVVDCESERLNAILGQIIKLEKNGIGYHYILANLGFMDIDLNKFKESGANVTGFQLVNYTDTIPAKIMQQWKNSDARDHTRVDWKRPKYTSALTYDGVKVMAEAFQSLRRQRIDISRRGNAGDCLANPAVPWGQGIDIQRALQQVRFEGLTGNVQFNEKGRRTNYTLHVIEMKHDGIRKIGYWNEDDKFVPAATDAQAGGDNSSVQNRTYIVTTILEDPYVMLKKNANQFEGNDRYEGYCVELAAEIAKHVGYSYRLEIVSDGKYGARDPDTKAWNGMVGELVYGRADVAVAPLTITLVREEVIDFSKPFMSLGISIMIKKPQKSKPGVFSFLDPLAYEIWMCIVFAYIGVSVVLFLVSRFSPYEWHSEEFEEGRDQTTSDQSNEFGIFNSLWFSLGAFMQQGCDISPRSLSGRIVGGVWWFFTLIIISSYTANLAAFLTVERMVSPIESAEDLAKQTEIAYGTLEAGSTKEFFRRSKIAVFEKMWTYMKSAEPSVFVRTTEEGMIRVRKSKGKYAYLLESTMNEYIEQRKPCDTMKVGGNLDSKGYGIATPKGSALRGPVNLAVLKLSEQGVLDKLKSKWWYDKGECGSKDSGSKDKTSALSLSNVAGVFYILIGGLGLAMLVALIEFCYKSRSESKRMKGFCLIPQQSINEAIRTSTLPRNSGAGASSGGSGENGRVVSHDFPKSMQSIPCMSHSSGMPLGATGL
T1 sequence (Q9Y698 whole entry partner): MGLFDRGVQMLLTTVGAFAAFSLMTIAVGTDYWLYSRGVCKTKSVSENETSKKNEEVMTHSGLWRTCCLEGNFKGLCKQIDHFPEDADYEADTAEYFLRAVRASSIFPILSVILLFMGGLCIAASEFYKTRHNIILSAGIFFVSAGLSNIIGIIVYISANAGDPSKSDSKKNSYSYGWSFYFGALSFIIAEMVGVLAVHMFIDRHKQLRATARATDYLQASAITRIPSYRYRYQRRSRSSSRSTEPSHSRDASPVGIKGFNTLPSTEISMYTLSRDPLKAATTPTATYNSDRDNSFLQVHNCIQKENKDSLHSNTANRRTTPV

| SMILES | activation at 30 µM | hGluR1 flip/30 μM (%) |
| --- | --- | --- |
| CCn1c(C(F)(F)F)nc2c(-c3ccc(C(=O)N4CCOCC4)cc3)cccc21 [Example 2, (4-(1-ethyl-2-(trifluoromethyl)-1H-benzimidazol-4-yl)phenyl)(morpholin-4-yl)methanone] | 79.3% |  |
| O=C(c1ccc(-c2cccc3c2nc(C(F)(F)F)n3CC(F)F)cc1)N1CCOCC1 [Example 7, (4-(1-(2,2-difluoroethyl)-2-(trifluoromethyl)-1H-benzimidazol-4-yl)phenyl)(morpholin-4-yl)methanone] | 83.3% |  |
| O=C(c1ccc(-c2cccc3c2nc(C(F)(F)F)n3CC(F)F)cc1)N1CCCOCC1 [Example 14, (4-(1-(2,2-difluoroethyl)-2-(trifluoromethyl)-1H-benzimidazol-4-yl)phenyl)(1,4-oxazepan-4-yl)methanone] | 92.6% |  |
| O=C(c1ccc(-c2cccc3c2nc(C(F)(F)F)n3CC(F)F)cc1)N1CCOC(C(F)F)C1 (centres unmarked) [Example 16, (4-(1-(2,2-difluoroethyl)-2-(trifluoromethyl)-1H-benzimidazol-4-yl)phenyl)(2-(difluoromethyl)morpholin-4-yl)methanone] | 108% |  |
| CN(CCC#N)C(=O)c1ccc(-c2cccc3c2nc(C(F)(F)F)n3CC(F)F)cc1 [Example 21, N-(2-cyanoethyl)-4-(1-(2,2-difluoroethyl)-2-(trifluoromethyl)-1H-benzimidazol-4-yl)-N-methylbenzamide] | 93.7% |  |
| O=C(c1ccc(-c2cccc3c2nc(C(F)(F)F)n3CC(F)F)cc1)N1CCOC(C(F)F)C1 (centres unmarked) [Example 22, (4-(1-(2,2-difluoroethyl)-2-(trifluoromethyl)-1H-benzimidazol-4-yl)phenyl)(2-(difluoromethyl)morpholin-4-yl)methanone] |  | 105.5% |
| O=C(c1ccc(-c2cccc3c2nc(C(F)(F)F)n3CC(F)F)cc1)N1CCOC(C(F)F)C1 (centres unmarked) [Example 23, (4-(1-(2,2-difluoroethyl)-2-(trifluoromethyl)-1H-benzimidazol-4-yl)phenyl)(2-(difluoromethyl)morpholin-4-yl)methanone] |  | 103% |
| O=C(c1ccc(-c2cccc3c2nc(C(F)(F)F)n3CC(F)F)cc1)N1CCOCC(F)(F)C1 [Example 29, (4-(1-(2,2-difluoroethyl)-2-(trifluoromethyl)-1H-benzimidazol-4-yl)phenyl)(6,6-difluoro-1,4-oxazepan-4-yl)methanone] | 93% |  |
| O=C(c1ccc(-c2c(F)ccc3c2nc(C(F)(F)F)n3CC(F)F)cc1)N1CCOCC1 [Example 36, (4-(1-(2,2-difluoroethyl)-5-fluoro-2-(trifluoromethyl)-1H-benzimidazol-4-yl)phenyl)(morpholin-4-yl)methanone] | 93.5% |  |

Second part, the molecule after the results:

| activation at 30 µM | hGluR1 flip/30 μM (%) | SMILES |
| --- | --- | --- |
| 68.4% |  | CCn1c(C(F)(F)F)nc2c(-c3ccc(C(=O)N4CCOCC4)cc3)nccc21 [Example 4, (4-(1-ethyl-2-(trifluoromethyl)-1H-imidazo[4,5-c]pyridin-4-yl)phenyl)(morpholin-4-yl)methanone] |
| 109% |  | CCn1c(C(F)(F)F)nc2c(-c3ccc(C(=O)N4CCOCC4)c(F)c3)nccc21 [Example 8, (4-(1-ethyl-2-(trifluoromethyl)-1H-imidazo[4,5-c]pyridin-4-yl)-2-fluorophenyl)(morpholin-4-yl)methanone] |
| 110% |  | CCn1c(C(F)(F)F)nc2c(-c3ccc(C(=O)N4CCO[C@@H](C)C4)c(F)c3)nccc21 [Example 9, (4-(1-ethyl-2-(trifluoromethyl)-1H-imidazo[4,5-c]pyridin-4-yl)-2-fluorophenyl)((2S)-2-methylmorpholin-4-yl)methanone] |
| 80.3% |  | C[C@H]1CN(C(=O)c2ccc(-c3cccc4c3nc(C(F)(F)F)n4C)cc2F)CCO1 [Example 11, (2-fluoro-4-(1-methyl-2-(trifluoromethyl)-1H-benzimidazol-4-yl)phenyl)((2S)-2-methylmorpholin-4-yl)methanone] |
| 84.4% |  | Cn1c(C(F)(F)F)nc2c(-c3ccc(C(=O)N4CCOCC4)c(F)c3)cccc21 [Example 12, (2-fluoro-4-(1-methyl-2-(trifluoromethyl)-1H-benzimidazol-4-yl)phenyl)(morpholin-4-yl)methanone] |
| 112% |  | C[C@H]1CN(C(=O)c2ccc(-c3cccc4c3nc(C(F)(F)F)n4CC(F)F)cc2)CCO1 [Example 13, (4-(1-(2,2-difluoroethyl)-2-(trifluoromethyl)-1H-benzimidazol-4-yl)phenyl)((2S)-2-methylmorpholin-4-yl)methanone] |
| 72% |  | O=C(c1ccc(-c2nccc3c2nc(C(F)(F)F)n3CC(F)F)cc1F)N1CCCOCC1 [Example 15, (4-(1-(2,2-difluoroethyl)-2-(trifluoromethyl)-1H-imidazo[4,5-c]pyridin-4-yl)-2-fluorophenyl)(1,4-oxazepan-4-yl)methanone] |
| 95.1% |  | C[C@H]1CN(C(=O)c2ccc(-c3nccc4c3nc(C(F)(F)F)n4CC(F)F)cc2F)CCO1 [Example 17, (4-(1-(2,2-difluoroethyl)-2-(trifluoromethyl)-1H-imidazo[4,5-c]pyridin-4-yl)-2-fluorophenyl)((2S)-2-methylmorpholin-4-yl)methanone] |
| 81% |  | CN(CCC#N)C(=O)c1ccc(-c2nccc3c2nc(C(F)(F)F)n3CC(F)F)cc1F [Example 19, N-(2-cyanoethyl)-4-(1-(2,2-difluoroethyl)-2-(trifluoromethyl)-1H-imidazo[4,5-c]pyridin-4-yl)-2-fluoro-N-methylbenzamide] |
| 78.1% |  | O=C(c1ccc(-c2nccc3c2nc(C(F)(F)F)n3CC(F)F)cc1F)N1CCC1 [Example 24, azetidin-1-yl(4-(1-(2,2-difluoroethyl)-2-(trifluoromethyl)-1H-imidazo[4,5-c]pyridin-4-yl)-2-fluorophenyl)methanone] |
| 79.3% |  | O=C(c1ccc(-c2nccc3c2nc(C(F)(F)F)n3CC(F)F)cc1F)N1CC(F)(F)C1 [Example 26, (3,3-difluoroazetidin-1-yl)(4-(1-(2,2-difluoroethyl)-2-(trifluoromethyl)-1H-imidazo[4,5-c]pyridin-4-yl)-2-fluorophenyl)methanone] |
| 97.8% |  | CN(C(=O)c1ccc(-c2nccc3c2nc(C(F)(F)F)n3CC(F)F)cc1F)C1CCOCC1 [Example 28, 4-(1-(2,2-difluoroethyl)-2-(trifluoromethyl)-1H-imidazo[4,5-c]pyridin-4-yl)-2-fluoro-N-methyl-N-(tetrahydro-2H-pyran-4-yl)benzamide] |
|  | 92.6% | CN(CCC#N)C(=O)c1ccc(-c2nccc3c2nc(C(F)(F)F)n3CC(F)F)cc1F [Example 30, N-(2-cyanoethyl)-4-(1-(2,2-difluoroethyl)-2-(trifluoromethyl)-1H-imidazo[4,5-c]pyridin-4-yl)-2-fluoro-N-methylbenzamide] |
| 94.2% |  | O=C(c1ccc(-c2nccc3c2nc(C(F)(F)F)n3CC(F)F)cc1F)N1CCOCC(F)(F)C1 [Example 34, (4-(1-(2,2-difluoroethyl)-2-(trifluoromethyl)-1H-imidazo[4,5-c]pyridin-4-yl)-2-fluorophenyl)(6,6-difluoro-1,4-oxazepan-4-yl)methanone] |
